Patent US7485646B2, “Serotonin 5-HT3 receptor agonist” (Research Foundation Itsuu Laboratory, priority 2004, dated 2009)
“And” between values parts separate entries of the source, which are not always exact repeats. Equal entries are not always repeated. Each block holds one compound with its values, some of them ahead of it.

How the values were obtained:
serotonin 5-HT3 receptor [1] = target: T1, serotonin 5-HT3 receptor (Homo sapiens, UniProt P46098); assay: Serotonin 5-HT3 receptor binding affinity ([3H]-GR-65630 binding inhibition); details: 1 μM test compound, membrane fraction from HEK-293 cells; for inhibition at 1 µM: read-out: [3H]-GR65630 binding inhibition rate at 1 μM
T1 construct: expressed in transfected cells; host or cells: HEK-293 cells (membrane fraction)
T1 sequence (P46098 24-478): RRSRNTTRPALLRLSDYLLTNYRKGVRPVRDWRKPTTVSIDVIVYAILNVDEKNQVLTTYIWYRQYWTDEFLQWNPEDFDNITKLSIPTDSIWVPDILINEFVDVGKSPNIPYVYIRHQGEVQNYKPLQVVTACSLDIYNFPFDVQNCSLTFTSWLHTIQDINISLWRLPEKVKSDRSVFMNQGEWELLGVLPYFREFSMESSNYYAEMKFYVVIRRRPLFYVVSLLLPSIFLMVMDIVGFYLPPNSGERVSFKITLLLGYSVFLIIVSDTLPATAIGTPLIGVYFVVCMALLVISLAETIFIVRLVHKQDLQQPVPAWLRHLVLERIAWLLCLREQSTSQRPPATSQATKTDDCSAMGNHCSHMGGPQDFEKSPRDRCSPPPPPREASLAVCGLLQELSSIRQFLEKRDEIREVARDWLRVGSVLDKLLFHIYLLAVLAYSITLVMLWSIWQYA
Experimental: Serotonin 5-HT3 receptor binding affinities of the urea derivatives of the present invention and typical compounds among known urea derivatives, N-phenyl-4-methylpiperazine-1-carboxyamide (A), N-(4,5-dichlorophenyl)-4-methylppiperazine-1-carboxyamide (B), N-(3,5-trifluoromethylphenyl)-4-methylpiperazine-1-carboxyamide (C), N-(3-fluorophenyl)-4-methylpiperazine-1-carboxyamide (D) and N-(5-chloro-2-methoxyphenyl)-(4-tert-butyloxycarbonylpiperazine)-1-carboxyamide (E), were determined by the following method, and the results are shown in Table 1. The test compounds of the present invention are mentioned with the example numbers.
According to the method of Boess et al. (Neuropharmacology, 36, 637-647, 1997), affinities were examined by using a membrane fraction obtained from HEK-293 cells and a ligand selective to the serotonin 5-HT3 receptor, [3H]-GR-65630 [3-(5-methyl-1H-imidazol-4-yl)-1-(1-methyl-1H-indol-3-yl)-1-propanone] on the basis of inhibitory actions of the test compounds on the specific binding to GR-65630 as an index.

serotonin 5-HT3 receptor [2] = target: T2, serotonin 5-HT3 receptor (Cavia porcellus, UniProt O70212); assay: Test for serotonin 5-HT3 receptor partially activating action (guinea pig ileum longitudinal muscle contraction); set-up: species or system Hartley guinea pigs; details: for Activating action: guinea pig ileum contraction relative to 2.6 μM serotonin 5-HT; for Antagonistic action: suppression rate of serotonin 5-HT-induced contraction, guinea pig ileum
T2 construct: longitudinal muscle samples were prepared from the ileums of male or female Hartley guinea pigs; from tissue; host or cells: guinea pig ileum longitudinal muscle
T2 sequence (O70212 20-490): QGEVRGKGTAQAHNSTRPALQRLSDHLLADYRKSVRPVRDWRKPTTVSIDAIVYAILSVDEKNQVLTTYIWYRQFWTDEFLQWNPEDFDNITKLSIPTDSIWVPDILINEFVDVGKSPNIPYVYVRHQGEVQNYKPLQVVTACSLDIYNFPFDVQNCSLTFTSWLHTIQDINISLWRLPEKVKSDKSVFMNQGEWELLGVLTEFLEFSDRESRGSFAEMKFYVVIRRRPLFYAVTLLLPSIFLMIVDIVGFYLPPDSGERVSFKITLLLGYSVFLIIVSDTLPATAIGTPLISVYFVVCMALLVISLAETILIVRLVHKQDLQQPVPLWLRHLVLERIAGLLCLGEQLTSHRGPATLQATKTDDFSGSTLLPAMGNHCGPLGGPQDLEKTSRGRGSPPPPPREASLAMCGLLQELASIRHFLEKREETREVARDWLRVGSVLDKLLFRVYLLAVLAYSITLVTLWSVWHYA
Experimental: The serotonin 5-HT3 receptor antagonistic action and the serotonin 5-HT3 receptor activating action of 1-(2-hydroxyethyl)-1-methyl-4-(3,5-dichlorophenylcarbamoyl)piperazinium iodide as the compound of the present invention were determined according to the method of Butler et al. (Br. J. Pharmacol, 94, 397-412, 1988).
About 30-mm longitudinal muscle samples were prepared from the ileums of male or female Hartley guinea pigs (325±25 g). Each sample was hung down in a Magnus tube filled with 10 ml of Krebs solution (pH 7.4, 32° C.) with ventilation of a mixed gas (95% O2, 5% CO2), and loaded with a tension of 1 g, and contractile responses were measured isometrically. The serotonin 5-HT3 receptor activating action of the test compound was represented in terms of a relative value obtained by comparison of the contraction obtained by adding 2.6 μM of serotonin 5-HT to the sample and the contraction of 50% or more obtained within 5 minutes as a percentage based on the maximum contraction. The serotonin 5-HT3 receptor antagonistic action of the test compound was obtained from the contraction suppression rate obtained by adding serotonin 5-HT to the sample.

[3] = tested on: cisplatin-induced emesis in beagles; assay: Antiemetic action on cisplatin-induced emesis in dogs; format: in vivo; details: for Number of emesis 0 to 120 (minute) / Number of emesis 121 to 360 (minute) / Time of initial occurrence: 0.5 mg/kg i.v. 30 minutes before cisplatin 3 mg/kg i.v., one value per animal
Experimental: Actions on cisplatin-induced emesis in beagles of 1-(2-hydroxyethyl)-1-methyl-4-(3,5-dichlorophenylcarbamoyl)piperazinium bromide as the compound of the present invention and 5-chloro-2-(1-homopiperazinyl)-7-methylbenzooxazole (F) (International Publication WO00/31073), which is a benzoxazole derivative having a chemical structure similar to that of the novel urea derivative of the present invention among the known serotonin 5-HT3 receptor partially activating agents, were determined by the following method. The compound of the present invention is mentioned with the example number.
After starvation for 16 hours from one day before the day of the test, beagles (each group consisted of two dogs) were given 300 g of feed pellets and intravenously received cisplatin at a dose of 3 mg/kg 30 minutes later. The test compound was intravenously given 30 minutes before the administration of cisplatin, and frequency and time of emesis were monitored over 6 hours.

inhibition at 1 µM (serotonin 5-HT3 receptor [1]): 98%
Structure (SMILES): C[N+]1(CC2CC2)CCN(C(=O)Nc2cc(Cl)cc(Cl)c2)CC1 [Example 13, 1-Cyclopropylmethyl-1-methyl-4-(3,5-dichlorophenylcarbamoyl)-piperazinium bromide]

inhibition at 1 µM (serotonin 5-HT3 receptor [1]): 92%
Structure (SMILES): C=CC[N+]1(C)CCN(C(=O)Nc2cc(Cl)ccc2OC)CC1 [Example 20, 1-Allyl-1-methyl-4-(2-methoxy-5-chlorophenylcarbamoyl)piperazinium iodide]

inhibition at 1 µM (serotonin 5-HT3 receptor [1]): 105%
Structure (SMILES): C=CC[N+]1(C)CCN(C(=O)Nc2cc(Cl)cc(Cl)c2)CC1 [Example 10, 1-Allyl-1-methyl-4-(3,5-dichlorophenylcarbamoyl)piperazinium iodide]

[3H]-GR65630 binding inhibition rate at 1 μM (serotonin 5-HT3 receptor [1]): 5%
Structure (SMILES): COc1ccc(Cl)cc1NC(=O)N1CCN(C(=O)OC(C)(C)C)CC1 [E, N-(5-chloro-2-methoxyphenyl)-(4-tert-butyloxycarbonylpiperazine)-1-carboxyamide, reference compound]

inhibition at 1 µM (serotonin 5-HT3 receptor [1]): 98%
Structure (SMILES): COc1ccc(Cl)cc1NC(=O)N1CC[N+](C)(CCO)CC1 [Example 21, 1-(2-Hydroxyethyl)-1-methyl-4-(2-methoxy-5-chlorophenylcarbamoyl)-piperazinium iodide]

[3H]-GR65630 binding inhibition rate at 1 μM (serotonin 5-HT3 receptor [1]): 2%
Structure (SMILES): CN1CCN(C(=O)Nc2cc(C(F)(F)F)cc(C(F)(F)F)c2)CC1 [C, N-(3,5-trifluoromethylphenyl)-4-methylpiperazine-1-carboxyamide, reference compound]

Activating action (serotonin 5-HT3 receptor [2]; 1 μM): 0% | Antagonistic action (serotonin 5-HT3 receptor [2]; 1 μM): 15% | Activating action (serotonin 5-HT3 receptor [2]; 3 μM): 4% | Antagonistic action (serotonin 5-HT3 receptor [2]; 3 μM): 30% | Activating action (serotonin 5-HT3 receptor [2]; 10 μM): 14% | Antagonistic action (serotonin 5-HT3 receptor [2]; 10 μM): 37% | Activating action (serotonin 5-HT3 receptor [2]; 30 μM): 31% | Antagonistic action (serotonin 5-HT3 receptor [2]; 30 μM): 27% | Activating action (serotonin 5-HT3 receptor [2]; 100 μM): 23% | Antagonistic action (serotonin 5-HT3 receptor [2]; 100 μM): 36% | inhibition at 1 µM (serotonin 5-HT3 receptor [1]): 104%
Structure (SMILES): C[N+]1(CCO)CCN(C(=O)Nc2cc(Cl)cc(Cl)c2)CC1.[I-] [Example 11, 1-(2-Hydroxyethyl)-1-methyl-4-(3,5-dichlorophenylcarbamoyl)-piperazinium iodide]
Serotonin 5-HT3 receptor agonist character (in words) (serotonin 5-HT3 receptor [2]; Table 2): having both the serotonin 5-HT3 receptor antagonistic action and the serotonin 5-HT3 receptor activating action

Structure (SMILES): Cc1cc(Cl)cc2nc(N3CCCNCC3)oc12 [F, 5-chloro-2-(1-homopiperazinyl)-7-methylbenzooxazole, reference compound]
Time at which emesis occurred after the administration [3]: ≤ 90 min | Number of emesis 0 to 120 (minute) [3]: 14 and 8 | Number of emesis 121 to 360 (minute) [3]: 15 and 6 | Time of initial occurrence [3]: 88 min and 79 min

inhibition at 1 µM (serotonin 5-HT3 receptor [1]): 94%
Structure (SMILES): COc1ccc(Cl)cc1NC(=O)N1CC[N+](C)(C)CC1 [Example 19, 1,1-Dimethyl-4-(2-methoxy-5-chlorophenylcarbamoyl)piperazinium iodide]

[3H]-GR65630 binding inhibition rate at 1 μM (serotonin 5-HT3 receptor [1]): 22%
Structure (SMILES): CN1CCN(C(=O)Nc2ccc(Cl)c(Cl)c2)CC1 [B, N-(4,5-dichlorophenyl)-4-methylppiperazine-1-carboxyamide, reference compound]

Structure (SMILES): C[N+]1(CCO)CCN(C(=O)Nc2cc(Cl)cc(Cl)c2)CC1.[Br-] [Example 30, 1-(2-Hydroxyethyl)-1-methyl-4-(3,5-dichlorophenylcarbamoyl)-piperazinium bromide]
Emesis at the initial stage of administration (action on the central nerve system) [3]: no emesis was observed at the initial stage | Suppression of cisplatin-induced emesis in dogs (in words) [3]: effectively suppressed | Number of emesis 0 to 120 (minute) [3]: 0 | Number of emesis 121 to 360 (minute) [3]: 1 and 0 | Time of initial occurrence [3]: 165 min

inhibition at 1 µM (serotonin 5-HT3 receptor [1]): 96%
Structure (SMILES): C[N+]1(Cc2ccccc2)CCN(C(=O)Nc2cc(Cl)cc(Cl)c2)CC1 [Example 14, 1-Benzyl-1-methyl-4-(3,5-dichlorophenylcarbamoyl)piperazinium bromide]

Structure (SMILES): C[N+]1(C)CCN(C(=O)Nc2cc(Cl)cc(Cl)c2)CC1 [Example 9, 1,1-Dimethyl-4-(3,5-dichlorophenylcarbamoyl)piperazinium iodide]
inhibition at 1 µM (serotonin 5-HT3 receptor [1]): 104%

inhibition at 1 µM (serotonin 5-HT3 receptor [1]): 98%
Structure (SMILES): CCC[N+]1(C)CCN(C(=O)Nc2cc(Cl)cc(Cl)c2)CC1 [Example 12, 1-Propyl-1-methyl-4-(3,5-dichlorophenylcarbamoyl)piperazinium bromide]
